Laboratory results: patent publication US8017792B2, “1-thio-D-glucitol derivatives” (Taisho Pharmaceutical Co., Ltd., priority 2005, dated 2011)

Legend:
[1] = test system: rat kidney brush border membrane vesicles (BBMV); assay: Glucose uptake inhibition in rat kidney brush border membrane vesicles (Test Example 1); format: biochemical; conditions: D-[6-3H]glucose 0.1 mM, 37° C., five seconds, read-out: IC50 (concentration at which glucose uptake was inhibited by 50%)
Protocol: After 50 μL of a suspension (protein concentration: 4 mg/mL) of rat kidney brush border membrane vesicles (brush border membrane […]: BBMV) prepared following the method described in a document (Anal. Biochem., Vol. 201, Clause 301, 1984) was preincubated at 37° C. for two minutes, 150 μL of a reaction mixture which was a mixture of a test compound dissolved in DMSO (DMSO final concentration: 1%), 100 mM mannitol, 100 mM NaSCN or KSCN, 10 mM HEPES/Tris pH 7.4, D-glucose (final concentration: 0.1 mM) and 1 μCi of D-[6-^3H] glucose (Amersham) was added to this. After performing a reaction at 37° C. for five seconds, 1 mL of an ice cooled reaction terminating solution (150 mM NaCl, 10 mM HEPES/Tris pH 7.4, 0.3 mM phlorizin) was added to the reaction mixture to terminate the reaction, and BBMV was immediately separated by rapid filtration using a membrane filter (HAWP02500 having a pore size of 0.45 μm, Millipore). The membrane filter was washed three times with 4.5 mL of the ice cooled reaction terminating solution. After the membrane was dried sufficiently, radioactivity was measured with a liquid scintillation counter (Beckman) to quantify the amount of glucose taken in BBMV on the membrane filter.

Human SGLT1 = molecular target: T1, Human SGLT1 (Homo sapiens, UniProt P13866); assay: Sodium-dependent sugar uptake inhibition test in CHO-K1 cells stably expressing human SGLT1 (Test Example 2); format: cell-based; conditions: [14C]methyl-α-D-glucopyranoside 0.1 mM, 37° C., 30 minutes
T1 construct: expressed in transfected cells; host or cells: CHO-K1
T1 sequence (P13866 1-664): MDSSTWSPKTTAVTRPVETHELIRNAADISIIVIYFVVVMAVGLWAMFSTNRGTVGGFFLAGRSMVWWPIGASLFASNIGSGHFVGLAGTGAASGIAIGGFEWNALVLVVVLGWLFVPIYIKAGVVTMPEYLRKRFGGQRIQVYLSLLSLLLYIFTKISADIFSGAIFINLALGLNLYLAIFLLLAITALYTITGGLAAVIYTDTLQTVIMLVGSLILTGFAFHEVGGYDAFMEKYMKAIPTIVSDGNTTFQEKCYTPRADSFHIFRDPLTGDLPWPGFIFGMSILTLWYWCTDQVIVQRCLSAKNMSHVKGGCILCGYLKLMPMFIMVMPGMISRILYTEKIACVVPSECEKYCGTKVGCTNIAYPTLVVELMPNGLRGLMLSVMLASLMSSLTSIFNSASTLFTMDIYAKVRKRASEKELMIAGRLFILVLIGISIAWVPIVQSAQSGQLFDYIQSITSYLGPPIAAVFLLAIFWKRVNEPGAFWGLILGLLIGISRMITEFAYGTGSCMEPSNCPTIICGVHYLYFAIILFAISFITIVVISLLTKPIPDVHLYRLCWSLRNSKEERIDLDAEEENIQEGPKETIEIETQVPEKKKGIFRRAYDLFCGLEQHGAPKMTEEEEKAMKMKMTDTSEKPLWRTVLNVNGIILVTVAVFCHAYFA
Protocol: (§1) Human SGLT1 sequence (NM_000343) was reverse-transcripted from human small intestinal mRNA, then amplified, and then introduced into pCMV-tag5A from Stratagene Corporation. Human SGLT2 sequence (NM_003041) was prepared from human nephric mRNA as with the above method, and then introduced into pcDNA3.1+hygro from Invitrogen Corporation. Each cloned sequence was confirmed to be identical with the reported sequence.
(§2) CHO-K1 cells were transfected with the human SGLT1 and human SGLT2 expression vectors using Lipofectamine 2000 (Invitrogen Corporation). SGLT expression cells were cultured in the presence of geneticin (SGLT1) or hygromycin B (SGLT2) of the concentration of 500 μg/mL to select resistant strains. Cells were obtained using sugar uptake specific activity as an index in the following system.
(§3) Cells stably expressing human SGLT1 and human SGLT2 were used in the sodium-dependent sugar uptake activity inhibition test. Cells were incubated in 1 mL of a pretreatment buffer solution (140 mM choline chloride, 2 mM KCl, 1 mM CaCl2, 1 mM MgCl2, 10 mM HEPES/5 mM Tris, pH 7.4) for 20 minutes. The pretreatment buffer solution was removed and 200 μL of an uptake buffer containing test compounds (methyl-α-D-glucopyranoside containing [^14C]methyl-α-D-glucopyranoside (0.1 mM for SGLT1 inhibition, 1 mM for SGLT2 inhibition), 140 mM NaCl, 2 mM KCl, 1 mM CaCl2, 1 mM MgCl2, 10 mM HEPES/5 mM Tris, pH 7.4) were added, and uptake reaction was performed at 37° C. for 30 minutes (SGLT1) or for one hour (SGLT2). After the reaction, cells were washed with 1 mL of a washing buffer (10 mM methyl-α-D-glucopyranoside, 140 mM choline chloride, 2 mM KCl, 1 mM CaCl2, 1 mM MgCl2, 10 mM HEPES/5 mM Tris, pH 7.4) twice and dissolved in 400 μL of 0.2 M NaOH solution. After Aquazole 2 (Perkin Elmer Corporation) was added and mixed well, radioactivity was measured with a liquid scintillation counter (Beckman Coulter Corporation). A buffer for uptake which contained no test compound was prepared as a control group. Another buffer solution for uptake containing choline chloride in place of NaCl was also prepared for basic uptake.

Human SGLT2 = molecular target: T2, Human SGLT2 (Homo sapiens, UniProt P31639); assay: Sodium-dependent sugar uptake inhibition test in CHO-K1 cells stably expressing human SGLT2 (Test Example 2); format: cell-based; conditions: for IC50: CHO-K1 cells, [14C]methyl-α-D-glucopyranoside 1 mM, 37° C., one hour; for SGLT1/SGLT2: ratio of IC50 human SGLT1 to IC50 human SGLT2
T2 construct: expressed in transfected cells; host or cells: CHO-K1
T2 sequence (P31639 1-672): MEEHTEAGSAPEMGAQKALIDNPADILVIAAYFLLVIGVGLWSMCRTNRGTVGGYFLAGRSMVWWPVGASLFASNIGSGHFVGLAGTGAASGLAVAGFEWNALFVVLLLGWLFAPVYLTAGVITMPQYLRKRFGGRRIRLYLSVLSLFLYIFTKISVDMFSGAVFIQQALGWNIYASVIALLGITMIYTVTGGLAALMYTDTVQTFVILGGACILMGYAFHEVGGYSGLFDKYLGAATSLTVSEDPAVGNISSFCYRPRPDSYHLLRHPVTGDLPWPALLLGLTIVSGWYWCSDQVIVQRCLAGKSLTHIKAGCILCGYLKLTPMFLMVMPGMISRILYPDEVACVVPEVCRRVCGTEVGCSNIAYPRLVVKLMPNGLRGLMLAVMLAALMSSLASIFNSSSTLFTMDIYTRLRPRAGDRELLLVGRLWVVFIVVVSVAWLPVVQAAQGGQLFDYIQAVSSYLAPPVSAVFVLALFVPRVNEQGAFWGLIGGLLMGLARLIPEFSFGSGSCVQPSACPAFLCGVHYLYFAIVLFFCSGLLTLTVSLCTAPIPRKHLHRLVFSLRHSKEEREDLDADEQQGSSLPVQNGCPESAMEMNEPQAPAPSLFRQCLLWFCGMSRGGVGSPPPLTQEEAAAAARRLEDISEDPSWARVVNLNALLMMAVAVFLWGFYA
Protocol: as §1, §2, §3

Structure (SMILES) | IC50 [1] | IC50 (Human SGLT1) | IC50 (Human SGLT2) | SGLT1/SGLT2 (Human SGLT2) | melting point
CCOc1ccc(Cc2cccc([C@@H]3S[C@H](CO)[C@@H](O)[C@H](O)[C@H]3O)c2)cc1 [Compound 75, (1S)-1,5-Anhydro-1-[3-(4-ethoxybenzyl)phenyl]-1-thio-D-glucitol] | 1600 nM | 27400 nM | 2830 nM | 9.7 | –
CCOc1ccc(Cc2cc([C@@H]3S[C@H](CO)[C@@H](O)[C@H](O)[C@H]3O)ccc2Cl)cc1 [Compound 76, (1S)-1,5-Anhydro-1-[4-chloro-3-(4-ethoxybenzyl)phenyl]-1-thio-D-glucitol] | 320 nM | – | 80 nM | 14.6 | –
CCOc1ccc(Cc2ccc(O)c([C@@H]3S[C@H](CO)[C@@H](O)[C@H](O)[C@H]3O)c2)cc1 [Compound 79, (1S)-1,5-Anhydro-1-[3-(4-ethoxybenzyl)-6-hydroxyphenyl]-1-thio-D-glucitol] | 220 nM | 2700 nM | 370 nM | 7.2 | –
COc1ccc([C@@H]2S[C@H](CO)[C@@H](O)[C@H](O)[C@H]2O)cc1Cc1cc2ccccc2s1 [Compound 127, (1S)-1,5-Anhydro-1-[3-[(1-benzothien-2-yl)methyl]-4-methoxyphenyl]-1-thio-D-glucitol] | 350 nM | 700 nM | 1120 nM | 0.6 | 91 to 105 °C
OC[C@H]1S[C@@H](c2ccc(Cl)c(Cc3cc4ccccc4s3)c2)[C@H](O)[C@@H](O)[C@@H]1O [Compound 128, (1S)-1,5-Anhydro-1-[3-[(1-benzothien-2-yl)methyl]-4-chlorophenyl]-1-thio-D-glucitol] | 790 nM | 600 nM | 140 nM | 4.4 | 105 to 115 °C
